Data from paper PMC7781899, “Synthesis of some quinazolinones inspired from the natural alkaloid L-norephedrine as EGFR inhibitors and radiosensitizers” (Journal of Enzyme Inhibition and Medicinal Chemistry, 2020).
Blank lines part the entries; values can stand above or below the molecule they belong to.

What was measured:
HCT-116 [1] = experiment: MTT cytotoxicity assay, HCT-116; type: cell-based, human; conditions: for IC50: Homo sapiens, HCT-116, MTT assay, mean of three experiments ± SE, read-out: IC50 HCT-116; for Selectivity index (SI) HCT-116: relative to MCF-10A normal cells
Procedure: (§1) The 96-well plate was incubated for 24 h before the MTT assay. […] Cells were cultured using DMEM supplemented with 10% foetal bovine serum, 10 µg/mL insulin and 1% penicillin–streptomycin. Reconstituted MTT (10%) was added and incubated for 2 h. Formazan crystals were dissolved by the MTT solubilizing solution after incubation. Absorbance was measured at a wavelength of 570 nm[28].

HepG-2 [2] = experiment: MTT cytotoxicity assay, HepG-2; type: cell-based, human; conditions: for IC50: Homo sapiens, HepG2, MTT assay, mean of three experiments ± SE, read-out: IC50 HepG-2
Procedure: as §1

EGFR = target: T1, EGFR (Homo sapiens, UniProt P00533); experiment: EGFR kinase assay; type: biochemical; conditions: EGFR-TK inhibitory assay; means ± SE, three repeats
T1 construct: purchased Invitrogen
T1 sequence (P00533 25-1210): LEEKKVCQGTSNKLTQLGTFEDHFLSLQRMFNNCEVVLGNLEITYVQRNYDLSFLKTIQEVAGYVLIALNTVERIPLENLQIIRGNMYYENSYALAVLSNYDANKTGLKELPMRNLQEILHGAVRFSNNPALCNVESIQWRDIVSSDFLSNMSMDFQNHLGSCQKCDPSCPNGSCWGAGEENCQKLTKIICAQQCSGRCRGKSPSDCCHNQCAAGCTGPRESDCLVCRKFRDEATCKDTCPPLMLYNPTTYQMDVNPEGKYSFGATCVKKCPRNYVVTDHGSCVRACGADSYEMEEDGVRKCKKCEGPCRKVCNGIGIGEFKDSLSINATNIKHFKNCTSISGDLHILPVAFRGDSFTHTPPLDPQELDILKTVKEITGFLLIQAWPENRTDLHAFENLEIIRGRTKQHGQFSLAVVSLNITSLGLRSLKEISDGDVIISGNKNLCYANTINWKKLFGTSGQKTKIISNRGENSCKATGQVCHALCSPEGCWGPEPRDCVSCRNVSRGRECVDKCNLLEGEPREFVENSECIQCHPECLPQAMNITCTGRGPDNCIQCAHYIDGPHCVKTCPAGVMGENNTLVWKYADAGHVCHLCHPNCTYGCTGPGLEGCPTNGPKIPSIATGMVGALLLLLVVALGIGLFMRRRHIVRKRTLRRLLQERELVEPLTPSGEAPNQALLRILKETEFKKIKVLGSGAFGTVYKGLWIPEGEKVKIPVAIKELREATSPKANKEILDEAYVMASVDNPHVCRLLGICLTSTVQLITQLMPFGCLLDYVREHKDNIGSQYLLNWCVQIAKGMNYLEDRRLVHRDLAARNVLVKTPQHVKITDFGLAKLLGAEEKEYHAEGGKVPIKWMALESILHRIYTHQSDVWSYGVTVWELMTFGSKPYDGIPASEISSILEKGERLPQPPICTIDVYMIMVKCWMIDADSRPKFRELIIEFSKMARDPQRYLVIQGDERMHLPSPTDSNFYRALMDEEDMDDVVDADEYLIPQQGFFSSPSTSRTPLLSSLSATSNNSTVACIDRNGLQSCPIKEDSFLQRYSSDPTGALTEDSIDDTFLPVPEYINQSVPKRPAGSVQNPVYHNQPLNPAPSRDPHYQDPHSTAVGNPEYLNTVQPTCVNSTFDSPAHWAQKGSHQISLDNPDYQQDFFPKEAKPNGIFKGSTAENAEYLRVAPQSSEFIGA
Procedure: An ATP solution and a kinase/peptide mixture were developed just before use. […] Then, […] of the prepared solution was added to each well. The plate was incubated for 1 h and determined by an ELISA Reader (PerkinElmer, USA). Curve fitting using Graph Pad Prism 5 was constructed. Each experiment was repeated three times. IC50 was represented as means ± SE.

MCF-7 [3] = experiment: MTT cytotoxicity assay, MCF-7; type: cell-based, human; conditions: for IC50: Homo sapiens, MCF7, MTT assay, mean of three experiments ± SE, read-out: IC50 MCF-7; for Selectivity index (SI) MCF-7: relative to MCF-10A normal cells
Procedure: as §1

MDA-MB-231 [4] = experiment: MTT cytotoxicity assay, MDA-MB-231; type: cell-based, human; conditions: for IC50: Homo sapiens, MDA-MB-231, MTT assay, mean of three experiments ± SE, read-out: IC50 MDA-MB-231; for Selectivity index (SI) MDA-MB-231: relative to MCF-10A normal cells
Procedure: as §1

HCT-116 [5] = experiment: Radiosensitizing evaluation, HCT-116; type: cell-based; conditions: Homo sapiens, HCT-116, light or radiation study, 48 h; single dose of 8 Gy gamma radiation; measured two days after irradiation
Procedure: (§2) Irradiation was performed at the National Centre for Radiation Research and Technology (NCRRT), Egyptian Atomic Energy Authority, using Gamma cell-40 (^137Cs) source. The promising compounds 5 and 6 were selected to be re-evaluated for in vitro cytotoxic activity after the cells containing the compounds were gamma-irradiated at a dose level of 8 Gy with a dose rate of 0.758 rad/s for 17.59 min. Cytotoxicity was measured two days after irradiation. The IC50 of the tested compounds is calculated using GraphPad Prism 5.

MCF-7 [6] = experiment: Radiosensitizing evaluation, MCF-7; type: cell-based; conditions: Homo sapiens, MCF7, light or radiation study, 48 h; single dose of 8 Gy gamma radiation; measured two days after irradiation
Procedure: as §2

[7] = system: MDA-MB-231, MCF-7, HCT-116, HepG-2; experiment: Radiosensitizing evaluation, all tested cell lines; type: cell-based; conditions: Homo sapiens, light or radiation study; single dose of 8 Gy gamma radiation; read-out: IC50 on all the tested cell lines after irradiation
Procedure: as §2

[8] = system: MCF-10A normal breast cell line; experiment: MTT cytotoxicity assay, MCF-10A normal cells; type: cell-based; conditions: Homo sapiens
Procedure: as §1

HepG-2 [9] = experiment: Radiosensitizing evaluation, HepG-2; type: cell-based; conditions: Homo sapiens, HepG2, light or radiation study, 48 h; single dose of 8 Gy gamma radiation; measured two days after irradiation
Procedure: as §2

MDA-MB-231 cells [10] = experiment: Apoptotic assay, Annexin V-FITC/PI; type: cell-based, human; conditions: 0.76 μM, 24 h
Procedure: Cells were prepared as previously mentioned. Treatment of cells (10^5) with Annexin V-FITC and propidium iodide (PI) was by apoptosis detection kit [BD Biosciences, San Jose, CA]. The binding of Annexin V-FITC and PI was examined using flow cytometry FACScalibur (BD Biosciences, San Jose, CA). CellQuest software was used for performing quadrant analysis of co-ordinate dot plots.

MDA-MB-231 [11] = experiment: Radiosensitizing evaluation, MDA-MB-231; type: cell-based; conditions: Homo sapiens, MDA-MB-231, light or radiation study, 48 h; single dose of 8 Gy gamma radiation; measured two days after irradiation
Procedure: as §2

[12] = system: MDA-MB-231, MCF-7, HepG-2 and HCT-116 human cancer cell lines; experiment: MTT assay, panel of cancer cell lines; type: cell-based; conditions: range over MDA-MB-231, MCF-7, HepG-2, HCT-116, read-out: IC50 against all the cell lines
Procedure: as §1

MDA-MB-231 cells [13] = experiment: Cell cycle analysis by flow cytometry (PI); type: cell-based, human; conditions: 0.76 μM, 24 h
Procedure: The MDA-MB-231 cells (10^5/well) were incubated with compound 5 at its IC50. After 24 h, the cells were washed twice with PBS, then collected and fixed with ice-cold ethanol 70% (v/v). The cells were re-suspended with 0.1 mg/mL RNase, stained with […] PI and examined using flow cytometry (FACScalibur-Becton Dickinson).

SMILES: CC(C(O)c1ccccc1)n1c(=S)[nH]c2ccccc2c1=O (stereo not shown) [Compound 4, 3-(1-hydroxy-1-phenylpropan-2-yl)-2-thioxo-2,3-dihydroquinazolin-4(1H)-one]
IC50 (HCT-116 [1]): 23.49 ± 0.05 µM
IC50 (HepG-2 [2]): 22.7 ± 0.61 µM
IC50 (EGFR): 1.39 ± 0.14 µM
IC50 (MCF-7 [3]): 25.55 ± 0.02 µM
IC50 (MDA-MB-231 [4]): 35.24 ± 0.24 µM

SMILES: CSc1nc2ccccc2c(=O)n1C(C)C(O)c1ccccc1 (stereo not shown) [Compound 5, 3-(1-Hydroxy-1-phenylpropan-2-yl)-2-(methylthio)quinazolin-4(3H)-one]
IC50 (HCT-116 [1]): 5.76 ± 0.11 µM
Selectivity index (SI) HCT-116 (HCT-116 [1]): 10.74
melting point: 121.5 °C
IC50 (HCT-116 [5]): 2.28 ± 0.41 µM
IC50 (MCF-7 [6]): 2.35 ± 0.18 µM
IC50 [7]: < 5 µM
IC50 (HepG-2 [2]): 4.14 ± 0.03 µM
Selectivity index (SI) HepG-2 (HepG-2 [2]; relative to MCF-10A normal cells): 14.93
IC50 [8]: 61.9 ± 2.14 µM
IC50 (HepG-2 [9]): 2.34 ± 0.23 µM
Apoptotic assay % Early (MDA-MB-231 cells [10]): 7.36%
Apoptotic assay % Late (MDA-MB-231 cells [10]): 11.74%
Apoptotic assay % Necrosis (MDA-MB-231 cells [10]): 3.84%
Apoptotic assay % Total (MDA-MB-231 cells [10]): 22.94%
apoptosis over the control (MDA-MB-231 cells [10]): more than 12 folds
IC50 (MDA-MB-231 [11]): 0.78 ± 0.15 µM
IC50 [12]: 1.53 to 5.76 µM
IC50 (EGFR): 0.76 ± 0.1 µM
% G2-M (MDA-MB-231 cells [13]): 40.39%
% Pre-G1 (MDA-MB-231 cells [13]): 19.23%
% S (MDA-MB-231 cells [13]): 34.84%
%G0-G1 (MDA-MB-231 cells [13]): 24.77%
rise of percentage of cells at pri-G1 phase over control (MDA-MB-231 cells [13]): 10 folds
IC50 (MCF-7 [3]): 5.43 ± 0.14 µM
Selectivity index (SI) MCF-7 (MCF-7 [3]): 11.39
IC50 (MDA-MB-231 [4]): 1.53 ± 0.01 µM
Selectivity index (SI) MDA-MB-231 (MDA-MB-231 [4]): 40.42

SMILES: CC1C(c2ccccc2)Sc2nc3ccccc3c(=O)n21 (stereo not shown) [Compound 8, 3-Methyl-2-phenyl-2H-thiazolo[2,3-b]quinazolin-5(3H)-one]
IC50 (HCT-116 [1]): 49.22 ± 0.49 µM
IC50 (HepG-2 [2]): 47.32 ± 0.47 µM
IC50 (EGFR): 3.74 ± 0.17 µM
IC50 (MCF-7 [3]): 70.1 ± 0.87 µM
IC50 (MDA-MB-231 [4]): 38.19 ± 0.38 µM

SMILES: CC1Nn2c(nc3ccccc3c2=O)OC1c1ccccc1 (stereo not shown) [Compound 9, 3-Methyl-2-phenyl-3,4-dihydro-[1,3,4]oxadiazino[2,3-b]quinazolin-6(2H)-one]
IC50 (HCT-116 [1]): 90.54 ± 0.73 µM
IC50 (HepG-2 [2]): > 100 µM
IC50 (EGFR): 9.78 ± 0.31 µM
IC50 (MCF-7 [3]): > 100 µM
IC50 (MDA-MB-231 [4]): 84.15 ± 0.62 µM

SMILES: CC1Nn2c(nc3ccccc3c2=O)SC1c1ccccc1 (stereo not shown) [Compound 10, 3-methyl-2-phenyl-3,4-dihydro-[1,3,4]thiadiazino[2,3-b]quinazolin-6(2H)-one]
IC50 (HCT-116 [1]): 46.3 ± 0.63 µM
IC50 (HepG-2 [2]): 35.6 ± 0.36 µM
IC50 (EGFR): 3.09 ± 0.2 µM
IC50 (MCF-7 [3]): 37.31 ± 0.29 µM
IC50 (MDA-MB-231 [4]): 21.86 ± 0.04 µM

More lines, main results first:

melting point: 261.2 °C
IC50 (EGFR): 2.13 ± 0.21 µM
SMILES: Nn1c(=S)[nH]c2ccccc2c1=O [Compound 6, 3-Amino-2-thioxo-2,3-dihydroquinazolin-4(1H)-one]
IC50 (HCT-116 [1]): 10.6 ± 0.19 µM
Selectivity index (SI) HCT-116 (HCT-116 [1]): 4.64
IC50 (HCT-116 [5]): 6.98 ± 0.25 µM
IC50 (MCF-7 [6]): 4.26 ± 0.01 µM
IC50 (HepG-2 [2]): 17.6 ± 0.15 µM
IC50 [8]: 49.2 ± 1.52 µM
IC50 (HepG-2 [9]): 14.26 ± 0.11 µM
IC50 (MDA-MB-231 [11]): 1.04 ± 0.04 µM
IC50 (MCF-7 [3]): 7.23 ± 0.07 µM
Selectivity index (SI) MCF-7 (MCF-7 [3]): 6.81
IC50 (MDA-MB-231 [4]): 1.6 ± 0.01 µM
Selectivity index (SI) MDA-MB-231 (MDA-MB-231 [4]): 30.75

melting point: 178.9 °C
IC50 (EGFR): 3.44 ± 0.15 µM
SMILES: CSc1nc2ccccc2c(=O)n1N [Compound 7, 3-Amino-2-(methylthio)quinazolin-4(3H)-one]
IC50 (HCT-116 [1]): 59.2 ± 0.78 µM
IC50 (HepG-2 [2]): 48.3 ± 0.93 µM
IC50 (MCF-7 [3]): 68.1 ± 1.21 µM
IC50 (MDA-MB-231 [4]): 23.48 ± 0.06 µM
